Experimental data: ChEMBL document CHEMBL1201862, “PubChem BioAssay data set” (2004)
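Each compound was tested at five concentrations against cells in 96-well plates for 48 hours. Here, GI50 denotes the concentration required for 50% inhibition of growth.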 Activity calls are given as the source filed them. Cut-off read from the data, not from the text of the source: active = GI50 up to about 1.1 µM and inactive = higher.

Columns and labels:
Experiment in all cases: DTP human tumour cell line panel, 48 h
[1] = tested on: U-251
[2] = tested on: A549
[3] = tested on: EKVX
[4] = tested on: MOLT-4
[5] = tested on: HT-29
[6] = tested on: ACHN
[7] = tested on: NCI-H460
[8] = tested on: OVCAR-5
[9] = tested on: SF-268
[10] = tested on: HL-60
[11] = tested on: OVCAR-4
[12] = tested on: SK-MEL-28
[13] = tested on: MDA-MB-435
[14] = tested on: K562
[15] = tested on: CAKI-1
[16] = tested on: NCI/ADR-RES
[17] = tested on: TK-10
[18] = tested on: HOP-62
[19] = tested on: M14
[20] = tested on: UACC-62
[21] = tested on: IGROV-1
[22] = tested on: RPMI-8226
[23] = tested on: PC-3
[24] = tested on: MDA-N
[25] = tested on: MDA-MB-231
[26] = tested on: SF-295
[27] = tested on: SR
[28] = tested on: A498
[29] = tested on: BT-549
[30] = tested on: HCT-116
[31] = tested on: NCI-H23
[32] = tested on: HCT-15
[33] = tested on: SNB-75
[34] = tested on: MCF7
[35] = tested on: SK-MEL-5
[36] = tested on: OVCAR-8
[37] = tested on: HCC 2998
[38] = tested on: HOP-92
[39] = tested on: LOX IMVI
[40] = tested on: SK-OV-3
[41] = tested on: UACC-257
[42] = tested on: OVCAR-3
[43] = tested on: NCI-H522
[44] = tested on: Malme-3M
[45] = tested on: SW-620
[46] = tested on: SN12C
[47] = tested on: DU-145
[48] = tested on: 786-0
[49] = tested on: COLO 205
[50] = tested on: SF-539
[51] = tested on: T47D
[52] = tested on: Hs-578T
[53] = tested on: SNB-19
[54] = tested on: UO-31
[55] = tested on: CCRF-CEM
[56] = tested on: RXF 393
[57] = tested on: KM12
[58] = tested on: SK-MEL-2
[59] = tested on: NCI-H226

Structure (SMILES): C=CCNC1=C2C[C@@H](C)C[C@@H](OC)[C@H](OC(=O)CN(C)C)[C@H](C)/C=C(\C)[C@@H](OC(N)=O)[C@H](OC)/C=C\C=C(/C)C(=O)NC(=CC1=O)C2=O
- GI50 [1]: 188 nM (active)
- GI50 [2]: 56.2 nM (active)
- GI50 [3]: 1280 nM (inactive)
- GI50 [4]: 1430 nM (inactive)
- GI50 [5]: < 10 nM (active)
- GI50 [6]: 802 nM (active)
- GI50 [7]: 47.9 nM (active)
- GI50 [8]: 10300 nM (inactive)
- GI50 [9]: 2540 nM (inactive)
- GI50 [10]: 406 nM (active)
- GI50 [11]: 3410 nM (inactive)
- GI50 [12]: 89.7 nM (active)
- GI50 [13]: 42 nM (active)
- GI50 [14]: 151 nM (active)
- GI50 [15]: 1290 nM (inactive)
- GI50 [16]: 8220 nM (inactive)
- GI50 [17]: 54.3 nM (active)
- GI50 [18]: 60.4 nM (active)
- GI50 [19]: 48.5 nM (active)
- GI50 [20]: 46.7 nM (active)
- GI50 [21]: 94.2 nM (active)
- GI50 [22]: 832 nM (active)
- GI50 [23]: 49.5 nM (active)
- GI50 [24]: 28.1 nM (active)
- GI50 [25]: 2560 nM (inactive)
- GI50 [26]: 128 nM (active)
- GI50 [27]: < 11.3 nM (active)
- GI50 [28]: 262 nM (active)
- GI50 [29]: 4720 nM (inactive)
- GI50 [30]: 87.1 nM (active)
- GI50 [31]: 43 nM (active)
- GI50 [32]: 535 nM
- GI50 [33]: 114 nM (active)
- GI50 [34]: 24.5 nM (active)
- GI50 [35]: 53.8 nM (active)
- GI50 [36]: 163 nM (active)
- GI50 [37]: 43.4 nM (active)
- GI50 [38]: 6120 nM (inactive)
- GI50 [39]: 64.1 nM (active)
- GI50 [40]: 27.9 nM (active)
- GI50 [41]: 74.8 nM (active)
- GI50 [42]: 286 nM (active)
- GI50 [43]: 183 nM (active)
- GI50 [44]: 40.9 nM (active)
- GI50 [45]: 22.8 nM (active)
- GI50 [46]: 68.9 nM (active)
- GI50 [47]: < 10 nM (active)
- GI50 [48]: 671 nM (active)
- GI50 [49]: < 12.6 nM (active)
- GI50 [50]: 71 nM (active)
- GI50 [51]: 4820 nM (inactive)
- GI50 [52]: 13300 nM (inactive)
- GI50 [53]: 585 nM (active)
- GI50 [54]: 757 nM (active)
- GI50 [55]: 3080 nM (inactive)
- GI50 [56]: 1780 nM (inactive)
- GI50 [57]: 24 nM (active)
- GI50 [58]: 60.8 nM (active)

Structure (SMILES): C/C(=C\c1csc(C)n1)[C@@H]1C[C@@H]2O[C@@H]2CCC[C@H](C)[C@H](O)[C@@H](C)C(=O)C(C)(C)[C@@H](O)CC(=O)O1 [EPOTHILONE A]
- GI50 [59]: < 0.1 nM (active)
- GI50 [1]: < 0.1 nM (active)
- GI50 [2]: < 0.1 nM (active)
- GI50 [3]: < 0.1 nM (active)
- GI50 [4]: < 0.1 nM (active)
- GI50 [5]: < 0.1 nM (active)
- GI50 [6]: < 0.1 nM (active)
- GI50 [7]: < 0.1 nM (active)
- GI50 [8]: < 0.1 nM (active)
- GI50 [9]: < 0.1 nM (active)
- GI50 [10]: < 0.1 nM (active)
- GI50 [11]: 124 nM (active)
- GI50 [13]: < 0.1 nM (active)
- GI50 [14]: < 0.1 nM (active)
- GI50 [15]: < 0.1 nM (active)
- GI50 [16]: 0.113 nM (active)
- GI50 [17]: 16.7 nM (active)
- GI50 [18]: < 0.1 nM (active)
- GI50 [19]: < 0.1 nM (active)
- GI50 [20]: < 0.1 nM (active)
- GI50 [21]: < 0.1 nM (active)
- GI50 [22]: < 0.1 nM (active)
- GI50 [23]: < 0.1 nM (active)
- GI50 [24]: < 0.1 nM (active)
- GI50 [25]: < 0.1 nM (active)
- GI50 [26]: < 0.1 nM (active)
- GI50 [27]: < 0.1 nM (active)
- GI50 [28]: < 0.1 nM (active)
- GI50 [29]: < 0.1 nM (active)
- GI50 [30]: < 0.1 nM (active)
- GI50 [31]: < 0.1 nM (active)
- GI50 [32]: < 0.1 nM
- GI50 [33]: < 0.1 nM (active)
- GI50 [34]: < 0.1 nM (active)
- GI50 [35]: < 0.1 nM (active)
- GI50 [36]: < 0.1 nM (active)
- GI50 [37]: < 0.1 nM (active)
- GI50 [38]: 3.9 nM (active)
- GI50 [39]: < 0.1 nM (active)
- GI50 [40]: < 0.1 nM (active)
- GI50 [41]: < 0.1 nM (active)
- GI50 [42]: < 0.1 nM (active)
- GI50 [43]: < 0.1 nM (active)
- GI50 [45]: < 0.1 nM (active)
- GI50 [46]: < 0.1 nM (active)
- GI50 [47]: < 0.1 nM (active)
- GI50 [48]: < 0.1 nM (active)
- GI50 [49]: < 0.1 nM (active)
- GI50 [50]: < 0.1 nM (active)
- GI50 [51]: < 0.1 nM (active)
- GI50 [52]: < 0.1 nM (active)
- GI50 [53]: < 0.1 nM (active)
- GI50 [54]: < 0.1 nM (active)
- GI50 [55]: < 0.1 nM (active)
- GI50 [56]: < 0.1 nM (active)
- GI50 [57]: < 0.1 nM (active)
- GI50 [58]: < 0.1 nM (active)

Structure (SMILES): CCOC(=O)Nc1ccc(S(=O)(=O)Nn2cnnc2)cc1
- GI50 [1]: 44300 nM (inactive)
- GI50 [2]: 60400 nM (inactive)
- GI50 [3]: > 100000 nM (inactive)
- GI50 [4]: 50700 nM (inactive)
- GI50 [5]: 20300 nM (inactive)
- GI50 [6]: 81300 nM (inactive)
- GI50 [7]: 50000 nM (inactive)
- GI50 [8]: > 100000 nM (inactive)
- GI50 [9]: 83200 nM (inactive)
- GI50 [10]: 38000 nM (inactive)
- GI50 [11]: 17500 nM (inactive)
- GI50 [12]: 42800 nM (inactive)
- GI50 [13]: 16400 nM (inactive)
- GI50 [14]: 27200 nM (inactive)
- GI50 [15]: 47100 nM (inactive)
- GI50 [16]: 37100 nM (inactive)
- GI50 [17]: 85500 nM (inactive)
- GI50 [18]: 51600 nM (inactive)
- GI50 [19]: 43000 nM (inactive)
- GI50 [20]: 33800 nM (inactive)
- GI50 [21]: 40700 nM (inactive)
- GI50 [22]: 22600 nM (inactive)
- GI50 [23]: 57400 nM (inactive)
- GI50 [24]: 22000 nM (inactive)
- GI50 [25]: 76600 nM (inactive)
- GI50 [26]: 31500 nM (inactive)
- GI50 [27]: 23900 nM (inactive)
- GI50 [28]: 27200 nM (inactive)
- GI50 [29]: 53500 nM (inactive)
- GI50 [30]: 30100 nM (inactive)
- GI50 [31]: > 100000 nM (inactive)
- GI50 [32]: 50100 nM
- GI50 [34]: 41200 nM (inactive)
- GI50 [35]: 23900 nM (inactive)
- GI50 [36]: > 100000 nM (inactive)
- GI50 [37]: 33800 nM (inactive)
- GI50 [38]: 63700 nM (inactive)
- GI50 [39]: 69300 nM (inactive)
- GI50 [40]: 62700 nM (inactive)
- GI50 [41]: > 100000 nM (inactive)
- GI50 [42]: 27900 nM (inactive)
- GI50 [43]: 48100 nM (inactive)
- GI50 [44]: 44300 nM (inactive)
- GI50 [45]: 33300 nM (inactive)
- GI50 [46]: 53100 nM (inactive)
- GI50 [47]: > 100000 nM (inactive)
- GI50 [48]: 46500 nM (inactive)
- GI50 [49]: 39900 nM (inactive)
- GI50 [50]: 22400 nM (inactive)
- GI50 [51]: > 100000 nM (inactive)
- GI50 [52]: 57900 nM (inactive)
- GI50 [53]: > 100000 nM (inactive)
- GI50 [54]: 60100 nM (inactive)
- GI50 [55]: 23900 nM (inactive)
- GI50 [56]: > 100000 nM (inactive)
- GI50 [57]: 36200 nM (inactive)
- GI50 [58]: 72600 nM (inactive)
